From ChEMBL document CHEMBL1147724, “Synthesis and in vitro antileukemic activity of some new 1,3-(oxytetraethylenoxy)cyclotriphosphazene derivatives” (2006) come the findings set out here.

Values after ≈ are worked out from the molar mass of the structure shown. Active and inactive are the calls of the source. No cut-off for these calls is given here.

Common to all, as to assay type: functional
One test has as its system MOLT-4. As to the kind of experiment: Antiproliferative activity against human MOLT4 cell line by MTT assay at 4 ug/ml. The following applies: for IC50: read-out: ID50 (the source's name). In general terms: Tetrazolium assays rely on reduction of a dye to a coloured formazan, in cell work by metabolically active cells.
The next test deals with P388. The test is described as follows: Antiproliferative activity against mouse P388 cell line by MTT assay at 4 ug/ml. The following applies: for IC50: read-out: ID50 (the source's name).
In a further test the test system is BALB/3T3. As to the kind of experiment: Antiproliferative activity against BALB/3T3 cell line by MTT assay at 4 ug/ml. The following applies: Mus musculus; for IC50: read-out: ID50 (the source's name).
The next test relates to L1210. As to the kind of experiment: Antiproliferative activity against mouse L1210 cell line by MTT assay at 4 ug/ml. The following applies: for IC50: read-out: ID50 (the source's name).
In the next test the test system is HL-60. As to the kind of experiment: Antiproliferative activity against human HL60 cell line by MTT assay at 4 ug/ml. The following applies: for IC50: read-out: ID50 (the source's name).

On to `O=Cc1ccccc1OP12=NP(Oc3ccccc3C=O)(=NP(Oc3ccccc3C=O)(Oc3ccccc3C=O)=N1)OCCOCCOCCOCCO2` (stereo not given), for which the IC50 turned out to be 3.2 µg/mL (≈ 3.94 µM) in the test on MOLT-4; 3.2 µg/mL (≈ 3.94 µM) in the test with P388; 12.1 µg/mL (≈ 14.9 µM) in the test on BALB/3T3; 3.2 µg/mL (≈ 3.94 µM) in the test with L1210; 2.7 µg/mL (≈ 3.33 µM) with HL-60.
Turning to `O=C1c2ccccc2C(=O)c2c(NCCNP34=NP(Oc5ccccc5/C=N\CCCl)(=NP(Oc5ccccc5/C=N\CCCl)(Oc5ccccc5/C=N\CCCl)=N3)OCCOCCOCCOCCO4)cccc21` (stereo not given), the IC50 was 3.08 µg/mL (≈ 2.7 µM) in the test with MOLT-4; 2.16 µg/mL (≈ 1.89 µM) with P388; 9.54 µg/mL (≈ 8.37 µM) with BALB/3T3; 2.69 µg/mL (≈ 2.36 µM) in the test on L1210; 2.07 µg/mL (≈ 1.81 µM) with HL-60.
Consider `ClCC/N=C\c1ccccc1OP12=NP(Oc3ccccc3/C=N\CCCl)(=NP(Oc3ccccc3/C=N\CCCl)(Oc3ccccc3/C=N\CCCl)=N1)OCCOCCOCCOCCO2` (stereo not given), for which the IC50 in the test with MOLT-4 is 2.1 µg/mL (≈ 1.99 µM); in the test with P388 it was 3.2 µg/mL (≈ 3.03 µM); with BALB/3T3 it was 25.3 µg/mL (≈ 23.9 µM); in the test with L1210, 3.2 µg/mL (≈ 3.03 µM); in the test with HL-60, 2.9 µg/mL (≈ 2.74 µM).
As to `O=C1c2ccccc2C(=O)c2c(NCCNP34=NP(NCCCl)(=NP(NCCCl)(NCCCl)=N3)OCCOCCOCCOCCO4)cccc21` (stereo not given), the IC50 in the test with MOLT-4 worked out at 27.2 µg/mL (≈ 32.8 µM); with P388, 19.4 µg/mL (≈ 23.4 µM); with L1210, 29.3 µg/mL (≈ 35.4 µM); with HL-60, 18.9 µg/mL (≈ 22.8 µM). Further, in the test with BALB/3T3, the ID50 entry is “inactive”.
Take `O=Cc1ccccc1OP12=NP(Oc3ccccc3C=O)(Oc3ccccc3C=O)=NP(NCCNc3cccc4c3C(=O)c3ccccc3C4=O)(=N1)OCCOCCOCCOCCO2` (stereo not given): the IC50 in the test on MOLT-4 turned out to be 1.14 µg/mL (≈ 1.19 µM); in the test with P388, 2.9 µg/mL (≈ 3.03 µM); with BALB/3T3, 33.2 µg/mL (≈ 34.7 µM); in the test with L1210, 2.42 µg/mL (≈ 2.53 µM); in the test on HL-60, 2.23 µg/mL (≈ 2.33 µM).
Take `ClCCNP1(NCCCl)=NP2(NCCCl)=NP(NCCCl)(=N1)OCCOCCOCCOCCO2` (stereo not given): the ID50 entry with MOLT-4, in the test on P388, in the test with BALB/3T3, with L1210 and with HL-60 was “inactive” each time.
Regarding `O=C1c2ccccc2C(=O)c2c(NCCNP34=NP(Cl)(=NP(Cl)(Cl)=N3)OCCOCCOCCOCCO4)cccc21` (stereo not given), the IC50 with MOLT-4 was 29.6 µg/mL (≈ 42.4 µM); with P388 it was 32.8 µg/mL (≈ 46.9 µM); in the test on L1210, 52.8 µg/mL (≈ 75.6 µM); in the test on HL-60, 38.3 µg/mL (≈ 54.8 µM). Besides, in the test with BALB/3T3, the ID50 result is “inactive”.
For `ClCC/N=C\c1ccccc1OP12=NP(Oc3ccccc3/C=N\CCCl)(Oc3ccccc3/C=N\CCCl)=NP(Oc3ccc4ccccc4c3)(=N1)OCCOCCOCCOCCO2` (stereo not given), in that order: 3.11 µg/mL (≈ 3.05 µM), 2.7 µg/mL (≈ 2.65 µM), 2.43 µg/mL (≈ 2.39 µM), 2.89 µg/mL (≈ 2.84 µM) and “inactive”.
For `O=Cc1ccccc1OP12=NP(Oc3ccccc3C=O)(Oc3ccccc3C=O)=NP(Oc3ccc4ccccc4c3)(=N1)OCCOCCOCCOCCO2` (stereo not given), in that order: 3.09 µg/mL (≈ 3.71 µM), 2.55 µg/mL (≈ 3.06 µM), 2.75 µg/mL (≈ 3.3 µM), 2.81 µg/mL (≈ 3.37 µM) and “inactive”.
